Results: patent publication US6222035A, “[1,2,4] triazolo [1,5-C] pyrimidine derivatives” (Kyowa Hakko Kogyo Co., Ltd., priority 1997, dated 2001)
Counter-ions that a name gives are not always drawn.

Columns and labels:
[1] = system: learned helplessness model in rats; test: Activity in Learned Helplessness (LH) Model; format: in vivo, rat (male SD); conditions: 5.0 mg/kg po, electric shock (IES) loaded, Average % ± SE
Protocol: Activity in Learned Helplessness (LH) Model
As experimental animals, 10 to 15 animals per group of SD male rats (220 to 320 g in body weight, 7 week age, Charles River Japan, Atsugi) were used. During the preliminary feeding period, they were allowed to have feed (CRF-1, Oriental Yeast, Tokyo) and water (tap water) freely in an animal room at a room temperature of 22 to 24° C. and a humidity of 50 to 60%. The test compound was orally administered in a dose of 2 ml/kg and 1 hour before FR 1 (fixed ratio schedule 1: repetition of fixed trial conditions) on the second day of the test.
2) Preparation of Learned Helplessness Model
A shuttle box apparatus (TK-401S; manufactured by UNICOM, Chiba) was used as the learning test apparatus. […]
On the second day, a shuttle box test was carried out by slightly modifying the method of Maier et al. [J. Comp. […] The escape reaction was judged success when both of the two escape times in FR 2 were less than 10 seconds, and the escape response was calculated by the following formula: "the number of trials of successful escape/15×100=escape response (%)" Further, migration in the box other than the escape reaction observed during a period between trials (resting time) was used as an index of psychomotor stimulant action by calculating "total number of migration in the box/15×100=intertrial response (%)" […]

[2] = system: haloperidol-induced catalepsy in mice; test: Activity on haloperidol-induced Catalepsy; format: in vivo, mouse (male ddY); conditions: 10 mg/kg oral; for Total score (catalepsy): 10 animals, maximum 50 points, control 50; for Number of Animals showing remission: catalepsy score 4 points or less in 10 cases; for Remission ratio (%): haloperidol-induced catalepsy
Protocol: Activity on haloperidol-induced Catalepsy
Parkinson's disease is a disease based on the degeneration and cell death of the nigrostriatal dopaminergic neuron. When haloperidol (dopamine D1/D2 antagonist) is administered, catalepsy is induced by the block of postsynaptic D2 receptor. This haloperidol-induced catalepsy is known as a classic model in which symptoms of Parkinson's disease are produced by drug administration [European Journal of Pharmacology, 182: 327 (1990) and U.S. Pat. No. 3,991,207].
This test was carried out using 10 animals per group of male ddY mice of 5 week age (22 to 24 g in body weight, Japan SLC). Haloperidol (manufacturedby Janssen) was suspended in 0.3% CMC and administered intraperitoneally into mice at a dose of 1.0 mg/kg. Each test compound was used by mixing it with Tween 80 and then suspending it in distilled water for injection (manufactured by Otsuka Pharmaceutical). Also, L-DOPA (manufactured by Kyowa Hakko Kogyo Co., Ltd.) and benserazide HCl (manufactured by Kyowa Hakko Kogyo Co., Ltd.) were used by suspending them in 0.3% CMC. […] All of the test compounds were administered orally in a dose of 10 mg/kg, and 100 mg/kg of L-DOPA and 25 mg/kg of benserazide were used in combination as a control drug and administered by intraperitoneal injection. The catalepsy score was evaluated by the judging criteria shown in the above-described Table 3.
The effect was judged by total catalepsy scores of 10 animals in one group (the maximum is 50 points). When the total score was 40 points or less, the activity of drugs was judged positive. The number of animals showing remission of catalepsy was expressed by the number of cases in which the catalepsy score was 4 points or less in 10 cases. The catalepsy remission ratio was expressed as the percentage of the total score in the test compound-administered group to the total score in the control group.

[3] = system: clonidine-induced aggressive behavior in mice; test: Activity on Clonidine-induced Aggressive Behavior; format: in vivo, mouse (male ddY); conditions: 10 mg/kg po; for Number of attacks (count; average ± S.E.M.), test compound group: *: p < 0.05, 10 animals
Protocol: Activity on Clonidine-induced Aggressive Behavior
Effect of test compounds to increase aggressive behavior induced by the intraperitoneal injection of clonidine [European Journal of Pharmacology, 29: 374 (1968)] was examined.
This test was carried out using 2 animals per group of male ddY mice of 20 to 25 g in body weight (Japan SLC). Each test compound was used by mixing it with Tween 80 and then suspending it in distilled water for injection (manufactured by Otsuka Pharmaceutical), and clonidine hydrochloride (manufactured by Sigma Co.) was used by dissolving it in physiological saline (manufactured by Otsuka Pharmaceutical). […] The number of aggressive behavior of each mouse was measured for 30 minutes immediately after the administration of clonidine. The effect was judged by comparing values of the number of aggressive behavior in the control and those in test compound-administered groups (significance test: Student t-test).

adenosine A2A receptor = target: T1, adenosine A2A receptor (Rattus norvegicus, UniProt P30543); test: Adenosine receptor binding activity (adenosine A2A receptor binding test), 3H-CGS 21680 binding; conditions: 2 h, read-out: A2A receptor inhibition ratio (%); for inhibition at 0.1 µM: 10^-7 M; for inhibition at 0.01 µM: 10^-8 M
T1 construct: from tissue; host or cells: rat corpus striatum, washed membrane suspension
T1 sequence (P30543 whole entry): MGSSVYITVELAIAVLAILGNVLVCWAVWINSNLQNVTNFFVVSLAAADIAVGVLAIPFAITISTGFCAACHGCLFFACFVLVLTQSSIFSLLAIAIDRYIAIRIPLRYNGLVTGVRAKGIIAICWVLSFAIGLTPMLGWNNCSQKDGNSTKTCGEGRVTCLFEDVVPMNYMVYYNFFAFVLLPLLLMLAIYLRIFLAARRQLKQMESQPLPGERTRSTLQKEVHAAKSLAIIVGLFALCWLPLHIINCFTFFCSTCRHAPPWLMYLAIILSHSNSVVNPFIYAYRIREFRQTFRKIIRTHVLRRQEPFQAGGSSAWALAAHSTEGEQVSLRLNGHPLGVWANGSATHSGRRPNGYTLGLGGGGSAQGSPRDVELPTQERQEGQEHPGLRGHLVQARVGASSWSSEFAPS
In short: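 Rat corpus striatum membranes (5 mg wet tissue/mL in 50 mM Tris-HCl pH 7.7, 10 mM MgCl2, adenosine deaminase) incubated with 4.0 nM 3H-CGS 21680 and test compound for 120 min at 25 °C, then filtered and counted. Nonspecific binding defined with 100 μM CPA; % inhibition of specific binding calculated.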

[4] = system: CGS 21680-induced catalepsy in mice; test: Activity on CGS 21680-induced Catalepsy; format: in vivo, mouse (male ddY); conditions: 10 mg/kg oral; for Total score (catalepsy): 10 animals, maximum 50 points, control 48; for Number of Animals showing remission: catalepsy score 4 points or less in 10 cases; for inhibition in vivo at 10 mg/kg: Mus musculus, CGS 21680-induced catalepsy, read-out: Remission ratio (%)
In short: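 Male ddY mice (5 weeks, 10 per group) received CGS 21680 10 μg/20 μl intracerebroventricularly; test compounds given orally at 10 mg/kg in 0.3% Tween 80 suspension. Catalepsy scored 1 h after dosing on a 4.5 cm bar; total group score (maximum 50) compared with control; ≤4 per animal counted as remission.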

[5] = system: immobility time in forced swimming of mice; test: Forced Swimming Method (measurement of immobility time); format: in vivo, mouse (male ddY); conditions: 10 mg/kg oral, Steel-test vs solvent control
Protocol: Forced Swimming Method (measurement of immobility time)
Ten animals per group of ddY male mice (21 to 26 g in body weight, Japan SLC) were used as the experimental animal. During the preliminary feeding period, they were allowed to have feed and water freely in an animal room of a room temperature of 23±1° C. and a humidity of 55±5%. […] The drugs to be tested were suspended in a 0.3% Tween 80 solution and orally administered one hour before the test. In the negative control group, 10 ml/kg of the 0.3% Tween 80 solution alone was orally administered. Measurement of immobility time was carried out in accordance with the method of Porsolt [Arch. int Pharmacodyn., 229: 327-336 (1977)]. That is, a cylindrical transparent acrylic water tank (10 cm in diameter and 25 cm in height) was filled with 9 cm in depth of water having a temperature of 23±1° C., and mice were forced to swim for 6 minutes. When mice are put into water, they immediately start to swim trying to escape from the tank, but the motion gradually decreases 1 to 2 minutes thereafter. […] In order to reduce effects of daily rhythm, the test was carried out by using 5 of the 10 animals per group in the morning, and the remaining 5 animals in the afternoon. Further, measurement of immobility time was carried out by observing 2 animals at the same time and by not telling the observers distinctions about the solvent-administered group and doses of administered test drugs. Statistical analysis of the results was carried out by a multiple comparison test of the solvent-administered control group and each of the test drug-administered groups by Steel-test.

[6] = system: common marmoset MPTP-treated Parkinson's disease model; test: Activity in a Parkinson's Disease Model (common marmoset treated with MPTP); format: in vivo

SMILES	Intertrial response [1] [%]	Escape response ([1]; **: p < 0.01 vs loaded control) [%]	Total score (catalepsy) [2]	Number of Animals showing remission [2]	Remission ratio (%) [2] [%]	Number of attacks in test compound group/number of attacks in control group [3]	Number of attacks (count; average ± S.E.M.), test compound group [3] [count]	inhibition at 0.1 µM (adenosine A2A receptor) [%]	inhibition at 0.01 µM (adenosine A2A receptor) [%]	Total score (catalepsy) [4]	Number of Animals showing remission [4]	inhibition in vivo at 10 mg/kg [4] [%]	Immobility time-shortening activity [5]	Total spontaneous motor count ([6]; FIG. 2, common marmoset treated with MPTP)	Efficacy in the common marmoset MPTP-treated Parkinson's disease model ([6]; total Parkinson's disease symptom score and locomotor count vs vehicle)
Nc1nc(N2CCN(C(=O)c3ccccc3)CC2)cc2nc(-c3ccco3)nn12 [Compound 45, 5-Amino-7-(4-benzoylpiperazinyl)-2-(2-furyl)[1,2,4]triazolo[1,5-c]pyrimidine]	6.7 ± 3.8	64 ± 9.8													
CN1CCN(c2cc3nc(-c4ccco4)nn3c(N)n2)CC1 [Compound 40, 5-Amino-2-(2-furyl)-7-(4-methylpiperazinyl)[1,2,4]triazolo[1,5-c]pyrimidine]			18	7	64	7.6	22.00 ± 6.44	50	11	20	10	56			
Nc1nc(N2CCN(C/C=C/c3ccccc3)CC2)cc2nc(-c3ccco3)nn12 [Compound 88, 5-Amino-7-(4-trans-cinnamylpiperazinyl)-2-(2-furyl)[1,2,4]triazolo[1,5-c]pyrimidine]								57		0	10	98	Significant immobility time-shortening activity was observed		
CC(C)NC(=O)c1cnc(N)n2nc(-c3ccco3)nc12 [Compound 165, 5-Amino-2-(2-furyl)-8-isopropylcarbamoyl[1,2,4]triazolo[1,5-c]pyrimidine]								103		13	9	74	Significant immobility time-shortening activity was observed		
CNC(=O)c1cnc(N)n2nc(-c3ccco3)nc12 [Compound 167, 5-Amino-2-(2-furyl)-8-methylcarbamoyl[1,2,4]triazolo[1,5-c]pyrimidine]								90		9	10	82	Significant immobility time-shortening activity was observed		
COc1ccc(Oc2cc3nc(-c4ccco4)nn3c(N)n2)cc1OC [Compound 31, 5-Amino-7-(3,4-dimethoxyphenoxy)-2-(2-furyl)[1,2,4]triazolo[1,5-c]pyrimidine]			15	10	70	9.1	38.1 ± 13.06			28	9	42			
Nc1nc(N2CCN(CCCc3ccccc3)CC2)cc2nc(-c3ccco3)nn12 [Compound 63, 5-Amino-2-(2-furyl)-7-[4-(3-phenylpropyl)piperazinyl][1,2,4]triazolor[1,5-c]pyrimidine]								82	31	7	10	84		increase	effective
Nc1nc(N2CCN(CC#Cc3ccccc3)CC2)cc2nc(-c3ccco3)nn12 [Compound 89, 5-Amino-2-(2-furyl)-7-(4-(3-phenylpropargyl)piperazinyl)[1,2,4]triazolo[1,5-c]pyrimidine hydrochloride]								52		15	10	68	Significant immobility time-shortening activity was observed		
